Test results reported in patent US10308631B2, “Selective anti-cancer compounds” (NATIONAL UNIVERSITY OF SINGAPORE, priority 2015, dated 2019).

Columns and labels:
HeLa cells (LC3 puncta) = experiment: Immunofluorescence analysis of LC3 puncta; assay type: cell-based, human; conditions: 2.5 μM, 6 h
Protocol: HeLa cells, treated with either Compound 1 (a131) at 2.5 μM or DMSO for 6 h, were fixed in ice-cold methanol and subjected to immunofluorescence analysis using antibodies against LC3 and counterstained with diamidino-2-phenylindole (DAPI) to visualize the nucleus. The Merge boxes show both LC3 and DAPI staining. The bars represent 5 μm in length.
To confirm the results of the immunoblot analysis and the lysosome-mediated autophagy activity, HeLa cervical cancer cells as cultured above were treated with Compound 1 (2.5 μM, DMSO) or DMSO as a control for 6 h. The treated cells were fixed in ice-cold methanol and subjected to immunofluorescence analysis using antibodies against LC3 and counterstained with diamidino-2-phenylindole (DAPI) to visualize the nucleus.

[1] = test system: cancer cell lines (panel of thirty); experiment: MTT growth inhibition, mean over cancer cell line panel; assay type: cell-based; conditions: Homo sapiens, 72 h
Protocol: FIG. 7 is a graphical representation showing that Compound 1 (a131) induces selective cell growth inhibitory effects in a broad spectrum of human cancer cells. A panel of cancer and normal cell lines were treated with Compound 1 (a131) for 72 h and a mean G150 value (the concentration required to achieve 50% growth inhibition) was determined. A Student's t-test indicated a statistically significant difference at p<0.05 (p=0.017) between normal cells and cancer cells treated with Compound 1 (a131). […]
The MTT assay was performed by adding thiazolyl blue tetrazolium bromide (MTT reagent, Invitrogen) at a concentration of 0.5 mg/mL to each cell culture and the resulting mixture incubated for 4 h at 37° C. […] The absorbance of each well at 540 nm and 660 nm was measured using a microplate reader (Benchmark plus, BIO-RAD). The optical density (OD) values were calculated by subtracting the absorbance at 660 nm from the absorbance at 540 nm. […]

[2] = test system: oncogene-transformed BJ cells; experiment: Immunofluorescence of chromosome alignment, bipolar spindle and spindle poles; assay type: cell-based, human; conditions: 2.5 μM, 4 h, then MG132 1.5 h
Protocol: (§1) A: is a histogram showing isogenic non-transformed and oncogene-transformed BJ cells stably expressing GFP-tagged Histone H2B as a marker for chromosome segregation, treated with Compound 1 (a131) at 2.5 μM final concentration. Mitotic progression of these cells was monitored every 10 min. More than 100 cells per condition were quantified and classified into 3 groups: no, mild and severe mitotic defects with prolonged mitotic arrest, chromosome mis-segregation and failure in cytokinesis. […] The bars represent 5 μm in length. C: is a histogram showing quantification of defects in spindle formation and chromosome alignments (n>100 cells per condition).
(§2) To investigate why massive chromosome mis-segregation occurs in oncogene-transformed BJ cells when treated with Compound 1, but not in non-transformed BJ cells, the effects of Compound 1 were studied on isogenic BJ cell lines (transformed and non-transformed) that stably express GFP-Histone H2B. Cells cultured in accordance with Biology Example 3 were treated with Compound 1 at 2.5 μM final concentration for 4 h followed by MG132 for another 1.5 h to allow chromosome alignment. […]

[3] = test system: non-transformed normal BJ cells; experiment: as above; assay type: cell-based, human; conditions: 2.5 μM, 4 h, then MG132 1.5 h
Protocol: as §1, §2

[4] = test system: cleaved PARP and caspase-3 in oncogene-transformed human fibroblast BJ cells; experiment: Immunoblot of cleaved PARP and cleaved caspase-3; assay type: cell-based; conditions: 2.5 and 5 μM, 48 h
Protocol: FIGS. 5B, C provide a representation of an immunoblot analysis to examine the PARP or caspase-3 cleavage (B) and a histogram showing Caspase-3/7 activities, plotted as fold induction compared to DMSO-treated cells (C). BJ normal and transformed cells were treated with Compound 1 (a131) for 48 h. Cells were harvested and total lysates were analysed by detecting cleaved PARP or caspase-3 or caspase-3/7 activities as markers for apoptotic induction. […] Student's t-test was performed to determine the statistical significance (**=p<0.001, ***=p<0.0001, n.s.=no significance).
Whether Compound 1 (a131)-induced cancer cell-lethality was mediated by apoptosis or non-apoptotic programmed cell death was determined. For this purpose, isogenic non-transformed and oncogene-transformed human fibroblast BJ cell lines were cultured in DMEM supplemented with 10% FBS. The cells were treated with Compound 1 (2.5 μM and 5 μM, DMSO). 48 h after treatment, total cell lysates were prepared for immunoblot analysis using antibodies against cleaved PARP and cleaved caspase-3, well-known markers for apoptosis. In addition, a fraction of total cell lysates was also subjected to Caspase-3/7 Glo (Promega) assay to measure the combined activity of caspase 3/7. This was determined using caspase-Glo 3/7 Assay Kit (Promega) and its activity was normalized to a number of viable cells as determined by MTT assay.

[5] = test system: oncogene-transformed BJ cells; experiment: Time-lapsed live cell analysis of mitotic progression (GFP-Histone H2B); assay type: cell-based, human; conditions: 2.5 μM, monitored every 10 min
Protocol: as §1
(§3) Isogenic non-transformed and oncogene-transformed BJ cells stably expressing GFP-tagged Histone H2B as a marker for chromosome segregation were treated with Compound 1 at 2.5 μM final concentration. Mitotic progression of these cells was monitored every 10 min and images were acquired using a Super Resolution Microscope (Nikon) equipped with an iXon EM+ 885 EMCCD camera (Andor) mounted on a Nikon Eclipse Ti-E inverted microscope with a CFI Apo objective and a Stage Top Incubation with Digital CO2 mixer (Tokai). The images were processed with the NIS-Elements AR software. […]

[6] = test system: non-transformed normal BJ cells; experiment: as above; assay type: cell-based, human; conditions: 2.5 μM, monitored every 10 min
Protocol: as §1, §3

For `N#C/C(=C\c1cccc2cnccc12)c1c[nH]c2ccccc12` [Compound 1, (Z)-2-(1H-indol-3-yl)-3-(isoquinolin-5-yl)acrylonitrile], the LC3 puncta formation (HeLa cells (LC3 puncta)) was “increased LC3 puncta formation”, the GI50 [1] was 1700 nM and the “chromosome alignment and spindle formation” value [2] was “massively misaligned chromosomes with the formation of multipolar spindles”. The “chromosome alignment and spindle formation” value [3] was “did not show marked defects in chromosome alignment”, the “levels of cleaved PARP and caspase-3” value [4] was “markedly increased the levels of both cleaved PARP and caspase-3” and the mitotic defects [5] was “severe mitotic defects with prolonged mitotic arrest, chromosome mis-segregations and failure in cytokinesis”. The mitotic defects [6] was “only induced a short period of mitotic arrest with mild mitotic defects”.
